From PubChem BioAssay (NCI)
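Five concentrations, 48 hours, 96-well plates. At the TGI there is no net growth.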

Tests used:
Test in all cases: DTP human tumour cell line panel, 48 h
786-0 renal = system: 786-0 renal
A498 renal = system: A498 renal
A549 NSCLC = system: A549 NSCLC
ACHN renal = system: ACHN renal
BT-549 breast = system: BT-549 breast
CAKI-1 renal = system: CAKI-1 renal
CCRF-CEM leukemia = system: CCRF-CEM leukemia
COLO 205 colon = system: COLO 205 colon
DU-145 prostate = system: DU-145 prostate
EKVX NSCLC = system: EKVX NSCLC
HCC-2998 colon = system: HCC-2998 colon
HCT-116 colon = system: HCT-116 colon
HCT-15 colon = system: HCT-15 colon
HL-60(TB) leukemia = system: HL-60(TB) leukemia
HOP-62 NSCLC = system: HOP-62 NSCLC
HOP-92 NSCLC = system: HOP-92 NSCLC
HS 578T breast = system: HS 578T breast
HT29 colon = system: HT29 colon
IGROV1 ovarian = system: IGROV1 ovarian
K-562 leukemia = system: K-562 leukemia
KM12 colon = system: KM12 colon
LOX IMVI melanoma = system: LOX IMVI melanoma
M14 melanoma = system: M14 melanoma
MALME-3M melanoma = system: MALME-3M melanoma
MCF7 breast = system: MCF7 breast
MDA-MB-231 breast = system: MDA-MB-231 breast
MDA-MB-435 = system: MDA-MB-435
MOLT-4 leukemia = system: MOLT-4 leukemia
NCI-H226 lung = system: NCI-H226 lung
NCI-H23 lung = system: NCI-H23 lung
NCI-H460 lung = system: NCI-H460 lung
NCI-H522 lung = system: NCI-H522 lung
NCI/ADR-RES ovarian = system: NCI/ADR-RES ovarian
OVCAR-3 ovarian = system: OVCAR-3 ovarian
OVCAR-4 ovarian = system: OVCAR-4 ovarian
OVCAR-5 ovarian = system: OVCAR-5 ovarian
OVCAR-8 ovarian = system: OVCAR-8 ovarian
PC-3 prostate = system: PC-3 prostate
RPMI-8226 leukemia = system: RPMI-8226 leukemia
RXF 393 renal = system: RXF 393 renal
SF-268 CNS = system: SF-268 CNS
SF-295 CNS = system: SF-295 CNS
SF-539 CNS = system: SF-539 CNS
SK-MEL-2 melanoma = system: SK-MEL-2 melanoma
SK-MEL-28 melanoma = system: SK-MEL-28 melanoma
SK-MEL-5 melanoma = system: SK-MEL-5 melanoma
SK-OV-3 ovarian = system: SK-OV-3 ovarian
SN12C renal = system: SN12C renal
SNB-19 CNS = system: SNB-19 CNS
SNB-75 CNS = system: SNB-75 CNS
SR leukemia = system: SR leukemia
SW-620 colon = system: SW-620 colon
T-47D breast = system: T-47D breast
TK-10 renal = system: TK-10 renal
U251 CNS = system: U251 CNS
UACC-257 melanoma = system: UACC-257 melanoma
UACC-62 melanoma = system: UACC-62 melanoma
UO-31 renal = system: UO-31 renal
MDA-N = system: MDA-N

Measured: TGI

O=C1OC(C(O)C(O)C(O)CO)C(O)C1O (stereo unspecified)
> 100 µM: 786-0 renal | A498 renal | A549 NSCLC | ACHN renal | BT-549 breast | CAKI-1 renal | CCRF-CEM leukemia | COLO 205 colon | DU-145 prostate | EKVX NSCLC | HCC-2998 colon | HCT-116 colon | HCT-15 colon | HL-60(TB) leukemia | HOP-62 NSCLC | HOP-92 NSCLC | HS 578T breast | HT29 colon | IGROV1 ovarian | K-562 leukemia | KM12 colon | LOX IMVI melanoma | M14 melanoma | MALME-3M melanoma | MCF7 breast | MDA-MB-231 breast | MDA-MB-435 | MOLT-4 leukemia | NCI-H226 lung | NCI-H23 lung | NCI-H460 lung | NCI-H522 lung | NCI/ADR-RES ovarian | OVCAR-3 ovarian | OVCAR-4 ovarian | OVCAR-5 ovarian | OVCAR-8 ovarian | PC-3 prostate | RPMI-8226 leukemia | RXF 393 renal | SF-268 CNS | SF-295 CNS | SF-539 CNS | SK-MEL-2 melanoma | SK-MEL-28 melanoma | SK-MEL-5 melanoma | SK-OV-3 ovarian | SN12C renal | SNB-19 CNS | SNB-75 CNS | SR leukemia | SW-620 colon | T-47D breast | TK-10 renal | U251 CNS | UACC-257 melanoma | UACC-62 melanoma | UO-31 renal

CN1N(c2ccccc2)C(=O)C2=NC=C(C#N)C(=N)C21C (stereo unspecified)
> 100 µM: 786-0 renal | A498 renal | A549 NSCLC | ACHN renal | BT-549 breast | CAKI-1 renal | CCRF-CEM leukemia | COLO 205 colon | DU-145 prostate | EKVX NSCLC | HCC-2998 colon | HCT-116 colon | HCT-15 colon | HOP-92 NSCLC | IGROV1 ovarian | K-562 leukemia | KM12 colon | LOX IMVI melanoma | M14 melanoma | MALME-3M melanoma | MCF7 breast | MDA-MB-231 breast | MDA-MB-435 | MDA-N | MOLT-4 leukemia | NCI-H226 lung | NCI-H23 lung | NCI-H460 lung | NCI-H522 lung | NCI/ADR-RES ovarian | OVCAR-3 ovarian | OVCAR-4 ovarian | OVCAR-5 ovarian | OVCAR-8 ovarian | PC-3 prostate | RPMI-8226 leukemia | RXF 393 renal | SF-295 CNS | SF-539 CNS | SK-MEL-2 melanoma | SK-MEL-28 melanoma | SK-MEL-5 melanoma | SK-OV-3 ovarian | SN12C renal | SNB-19 CNS | SNB-75 CNS | SR leukemia | SW-620 colon | TK-10 renal | U251 CNS | UACC-257 melanoma | UACC-62 melanoma | UO-31 renal
